In patent US9790201B2, “Piperidine and azepine derivatives as prokineticin receptor modulators” (TAKEDA PHARMACEUTICAL COMPANY LIMITED, priority 2013, dated 2017):

Target: human PKR1 receptors (Homo sapiens (Human), UniProt Q8TCW9)
Test: PKR1 antagonist assay: block of PK1-mediated intracellular calcium release (FLIPR Tetra)
Format: cell-based
Conditions: RBL2H3 cells expressing human PKR1; stimulation with PK1 at EC80; calcium fluorescence
Summary of the method: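 RBL2H3 cells expressing human PKR1, loaded 1 h at 37 °C with Calcium 5 dye plus 1 mM probenecid in HBSS/25 mM HEPES/0.1% BSA, pH 7.4. Compounds (0.32 nM–10 µM final) preincubated 10 min, then PK1 added at EC80; fluorescence read at 525 nm (excitation 485 nm).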

Sequence of human PKR1 receptors (Q8TCW9 whole entry): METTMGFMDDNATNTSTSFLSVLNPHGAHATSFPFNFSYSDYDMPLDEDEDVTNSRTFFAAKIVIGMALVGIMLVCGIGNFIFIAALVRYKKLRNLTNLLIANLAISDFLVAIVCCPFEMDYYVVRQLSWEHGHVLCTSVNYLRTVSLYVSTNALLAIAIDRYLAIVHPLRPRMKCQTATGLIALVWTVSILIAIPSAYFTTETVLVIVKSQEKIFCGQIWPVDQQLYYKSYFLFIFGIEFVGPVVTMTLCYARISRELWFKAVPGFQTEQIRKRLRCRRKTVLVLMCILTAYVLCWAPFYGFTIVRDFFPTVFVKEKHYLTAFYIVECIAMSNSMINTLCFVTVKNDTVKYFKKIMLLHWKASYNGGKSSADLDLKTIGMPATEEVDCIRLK

Compound	IC50 [nM]
CNc1cc(C(=O)N2CCCCC(c3ccc(OC)cc3)C2)cnn1 (stereo not drawn) [Example 112, 5-{[3-(4-Methoxyphenyl)azepan-1-yl]carbonyl}-N-methylpyridazin-3-amine]	1270
CNc1cc(C(=O)N2CCCCC(c3ccc(Cl)cc3)C2)cnn1 (stereo not drawn) [Example 113, 5-{[3-(4-Chlorophenyl)azepan-1-yl]carbonyl}-N-methylpyridazin-3-amine]	930
COc1ccc(C2CCCCN(C(=O)c3cnnc(N(C)C)c3)C2)cc1 (stereo not drawn) [Example 114, 5-{[3-(4-Methoxyphenyl)azepan-1-yl]carbonyl}-N,N-dimethylpyridazin-3-amine]	1430
CN(C)c1cc(C(=O)N2CCCCC(c3ccc(Cl)cc3)C2)cnn1 (stereo not drawn) [Example 115, 5-{[3-(4-Chlorophenyl)azepan-1-yl]carbonyl}-N,N-dimethylpyridazin-3-amine]	1440
Cc1cc(Cl)ccc1C1(O)CCCN(C(=O)c2ccnc(N(C)C)c2)C1 (stereo not drawn) [Example 116, 3-(4-Chloro-2-methylphenyl)-1-{[2-(dimethylamino)pyridin-4-yl]carbonyl}piperidin-3-ol]	1360
CN(C)c1cc(C(=O)N2CCCC(O)(c3ccc(F)cc3)C2)ccn1 (stereo not drawn) [Example 117, 1-{[2-(Dimethylamino)pyridin-4-yl]carbonyl}-3-(4-fluorophenyl)piperidin-3-ol]	3940
